# Experiments:
# [1] = tested on: EsemOR19; assay: Xenopus oocyte voltage clamp of EsemOR19; assay type: cell-based, Eriocrania semipurpurella; details: 10^−4 M
# From the text: (§1) We also examined the response profile of EsemOR19 from E. semipurpurella, an OR that falls close to the HarmOR42-defined clade but that is not considered as a HarmOR42 ortholog. […] We also characterized the function of RnubOR13 from R. nubila (Trichoptera), a species from a sister order of Lepidoptera. […] Unfortunately, the putative E. semipurpurella OR that would consist of EsemOR34 + 35 and that falls at the base of the HarmOR42 clade could not be tested as it is incomplete.
# Full-length coding sequences of 45 ORs (including Orco) of H. armigera, and OR42 and Orco orthologs in B. mori, H. assulta, G. molesta, and M. separate were amplified from the antennal cDNA of each species adults by PCR with specific primer pairs of each gene. […]
# (§2) Functional characterization of individual ORs was performed by heterologous expression in Xenopus oocytes combined with a two-electrode voltage-clamp system ([Wang et al. 2010]). […] After incubation in nutrient solution at 18 °C for 3–5 days, the response profile of each oocyte to multiple plant odorants was recorded via a two-electrode voltage clamp (OC-725C oocyte clamp, Warner Instruments, Hamden, CT) at a holding potential of −80 mV. Data were acquired by using a Digidata 1440 A and were analyzed by pCLAMP 10.2 software (Axon Instruments Inc., Union City, CA). […]
# [2] = tested on: RnubOR13; assay: Xenopus oocyte voltage clamp of RnubOR13; assay type: cell-based, Rhyacophila nubila; details: test panel
# From the text: as §1
# as §2, with “2010]). Briefly, the full-length gene of each OR and Orco were subcloned into the eukaryotic expression vector pT7TS. cRNAs were generated from linearized expression vectors using the mMESSAGE mMACHINE T7 kit (Ambion, Austin, TX).” for “2010]).”
# [3] = tested on: HarmOR42 orthologs from 11 lepidopteran species; assay: Xenopus oocyte voltage clamp of HarmOR42 orthologs, six-odorant screen; assay type: cell-based; details: six compounds at 10^−4 M; 11 species
# From the text: We gathered additional experimental evidence to support this conservation of a PAA-sensing function by performing in vitro functional characterization of HarmOR42 orthologs from 11 lepidopteran species belonging to eight families (fig. 5B). […] It should be noted that the species studied here included three Noctuidae species (H. armigera, H. assulta, and Mythimna separata), four moths from Bombycidae (Bombyx mori), Crambidae (Chilo suppressalis), Sphingidae (Manduca sexta), and Tortricidae (Grapholitha molesta) ([Mitter et al. 2017]; [Kawahara et al. 2019]), and four diurnal butterfly species from diverse families (Vanessa tameamea, Papilio xuthus, Danaus plexippus, and Pieris rapae) (fig. 5B). […]
# as §2
# [4] = tested on: SlitOR14; set-up: method as in de Fouchier et al. 2017; details: ref de Fouchier et al. 2017; cited from earlier work
# [5] = molecular target: HarmOR59 (Helicoverpa armigera, UniProt A0A7T3KAU6); assay: Xenopus oocyte two-electrode voltage clamp, HarmOR59 + Orco; assay type: cell-based
# Description: In order to expand our analysis on the response properties of HarmORs, we conducted dose–response analyses for the 28 functional HarmORs. […] Six HarmORs (OR3, 22, 48, 50, 56, and 66) could not be activated by any ligand at 10^−5 M. For the other 22 HarmORs, dose–response curves were generated and EC50 values of their major ligands were calculated (fig. 2A and supplementary table S2, Supplementary Material online). The HarmOR repertoire was highly efficient in terpene detection, since the lowest EC50 values were obtained for such compounds. Many of these terpenes have been proposed to be defensive chemicals of plants. […] DMNT is also one of the oviposition deterring compounds found in larval frass of some Lepidoptera species such as S. littoralis ([Anderson et al. 1993]).
# Functional characterization of individual ORs was performed by heterologous expression in Xenopus oocytes combined with a two-electrode voltage-clamp system ([Wang et al. 2010]). Briefly, the full-length gene of each OR and Orco were subcloned into the eukaryotic expression vector pT7TS. cRNAs were generated from linearized expression vectors using the mMESSAGE mMACHINE T7 kit (Ambion, Austin, TX). Then, the cRNA mixture of ORx and Orco (27.6 ng each) was injected (Nanoliter 2010, WPI Inc., Sarasota, FL) into oocytes (stage V–VII). The respective Orcos of different species were used for functional studies of OR42 orthologs except for the four butterfly species (V. tameamea, P. xuthus, D. plexippus, and P. rapae), in which we used the Orco from P. xuthus. After incubation in nutrient solution at 18 °C for 3–5 days, the response profile of each oocyte to multiple plant odorants was recorded via a two-electrode voltage clamp (OC-725C oocyte clamp, Warner Instruments, Hamden, CT) at a holding potential of −80 mV. Data were acquired by using a Digidata 1440 A and were analyzed by pCLAMP 10.2 software (Axon Instruments Inc., Union City, CA).
# Stock solutions of each odorant were prepared at 1 M using DMSO as a solvent, and each odorant was diluted in 1× Ringer’s solution to the indicated concentrations for electrophysiological recording. For functional screening of each HarmOR, a panel of 67 odorants belonging to three types of chemical classes: terpenes, aromatics, and aliphatics (short-chain fatty acid) were used (supplementary table S1, Supplementary Material online). For functional studies of OR42 orthologs from different species, six odorants including PAA, benzaldehyde, (E)-2-hexen-1-al, cinnamaldehyde, 2-phenylethanol, and heptanal were used.
# [6] = tested on: H. armigera moths; assay: Two-choice olfactometer behavioral assay, adult moths; assay type: in vivo, Helicoverpa armigera; details: females and males, 0.01 mg PAA or 50 μl 0.1% IAC, 10 h
# Description: In a first step, we tested the attractiveness of PAA and a commercial mix of floral attractants, which takes PAA as its principal component (IAC) ([Cork 2016]; [Whitfield et al. 2019]), to H. armigera moths using a two-choice behavioral assay in a choice box (fig. 6A).
# For adults, behavioral experiments were performed in a two-choice olfactometer according to a previous study with some modifications ([Del Socorro et al. 2010]). The olfactometer apparatus consisted of a main-chamber (60 cm × 30 cm × 25 cm) and two-choice subchambers under the main-chamber (20 cm × 15 cm × 25 cm) (fig. 6A). A metal gauze funnel (10 cm diameter) was inserted between the main-chamber and the subchambers. A hole at the bottom of the funnel allowed the moth to enter the subchamber. Clean humidified air flows (15 l/min) entered each subchamber and were exhausted by an exhaust fan. All the experiments were performed during the moth scotophase at 27 ± 1 °C. […] After 10 h, the number of moths in each subchamber was recorded. […] A selection ratio (SR) was calculated using the formula: SR = T/(T + C), where T represents the number of moths that entered the test subchamber and C represents the number of moths that entered the control subchamber. […] A quantity of 0.01 mg PAA was applied. […] The results were statistically analyzed using a χ^2 test.
# Chain of HarmOR59 (A0A7T3KAU6 entry or part of it): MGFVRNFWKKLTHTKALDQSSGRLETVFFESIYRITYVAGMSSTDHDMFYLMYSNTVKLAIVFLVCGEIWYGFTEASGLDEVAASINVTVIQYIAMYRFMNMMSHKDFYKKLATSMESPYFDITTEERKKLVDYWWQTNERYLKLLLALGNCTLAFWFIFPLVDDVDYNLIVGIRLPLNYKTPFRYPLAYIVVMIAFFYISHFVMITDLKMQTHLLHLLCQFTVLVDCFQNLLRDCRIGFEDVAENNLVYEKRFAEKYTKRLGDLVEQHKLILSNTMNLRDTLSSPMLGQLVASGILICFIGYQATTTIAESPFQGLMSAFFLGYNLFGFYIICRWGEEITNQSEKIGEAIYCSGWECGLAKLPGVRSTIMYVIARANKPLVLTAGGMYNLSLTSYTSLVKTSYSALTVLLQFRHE
smiles,measurement,setting,value
O=CCc1ccccc1 [Phenylacetaldehyde],response of EsemOR19,[1],no response
same,response of RnubOR13,[2],activated neither
same,ligand tuning of HarmOR42 orthologs,[3],robustly tuned to PAA as its best ligand
same,response of SlitOR14,[4],high specificity and sensitivity
same,EC50,[5],6.97 µM
same,attractiveness to wild-type moths vs solvent,[6],"more attractive to H. armigera moths than the solvent control, but the results were not statistically significant"

# Reference: article PMC8042770, “Odorant Receptors for Detecting Flowering Plant Cues Are Functionally Conserved across Moths and Butterflies” (Molecular Biology and Evolution, 2020)
